Reference: patent publication US5880256A, “Factor VIIa inhibitors from Kunitz domain proteins” (Genentech, Inc., priority 1995, dated 1999)
Positions of bridges follow the written chain, without caps; N, C: chain ends. No end group written: not given here.

Key:
[1] = tested on: New Zealand white rabbits; test: Cuticle bleeding time in the rabbit model; type: in vivo; details: for bleeding compared to the saline control (in words): after 10 minutes
Description: Male New Zealand white rabbits (~4 kg) were anesthetized to surgical anesthesia plane with an IM injection of Ketamine / Xylaxine. The rabbits were placed supine on a restraining board, warmed to 37° C., and the neck and inner thigh area shaved. Teflon catheters were replaced in a marginal ear vein and femoral artery for drug delivery and sample collection respectively. Prior to treatment, blood samples were collected for coagulation tests (APTT and PT). Bleeding time was assessed from a cut made in the cuticle portion of a hind limb nail. Incisions were made in the neck region and the entire left common carotid artery and its branches were surgically isolated. An ultrasonic flow probe (Transonics®) was placed on the common carotid approximately 5 cm caudal to the common--internal bifurcation. After blood flow reached a stable baseline, drugs (saline or test compounds) were delivered via the marginal ear vein. A deflated embolectomy catheter (Fogarty®, 3F) was then introduced into the lumen of the common via an incision in the lingual branch. Blood flow through the artery was stopped briefly while the catheter was introduced and loosely secured with 2-0 silk tie at the incision site. After the catheter was in place and secure, blood flow was restored. The deflated balloon was advanced to within 2 mm of the flow probe and inflated with saline until resistance of the vessel wall was felt. The catheter was pulled back with a steady motion to the first branch and then deflated. This procedure was repeated a total of six times for each experimental animal, after which the catheter was removed. […] Over 40 minutes, blood samples were taken for APTT and PT measurements, cuticle bleeding times were assessed and blood flow through the carotid monitored. Duration of patency was defined as the total amount of time (maximum=40 minutes) that any measurable blood flow is detected in the artery. Patency rate refers to the percentage of animals tested who had carotid artery blood flow≥5 minutes. […] If any thrombus was present, it was removed, blotted and the weight recorded. […]

[2] = tested on: New Zealand white rabbits; test: Rabbit deep medial injury model (carotid artery patency, thrombus weight); type: in vivo
Description: Male New Zealand white rabbits (~4 kg) were anesthetized to surgical anesthesia plane with an IM injection of Ketamine / Xylaxine. The rabbits were placed supine on a restraining board, warmed to 37° C., and the neck and inner thigh area shaved. Teflon catheters were replaced in a marginal ear vein and femoral artery for drug delivery and sample collection respectively. Prior to treatment, blood samples were collected for coagulation tests (APTT and PT). Bleeding time was assessed from a cut made in the cuticle portion of a hind limb nail. Incisions were made in the neck region and the entire left common carotid artery and its branches were surgically isolated. An ultrasonic flow probe (Transonics®) was placed on the common carotid approximately 5 cm caudal to the common--internal bifurcation. After blood flow reached a stable baseline, drugs (saline or test compounds) were delivered via the marginal ear vein. A deflated embolectomy catheter (Fogarty®, 3F) was then introduced into the lumen of the common via an incision in the lingual branch. Blood flow through the artery was stopped briefly while the catheter was introduced and loosely secured with 2-0 silk tie at the incision site. After the catheter was in place and secure, blood flow was restored. The deflated balloon was advanced to within 2 mm of the flow probe and inflated with saline until resistance of the vessel wall was felt. The catheter was pulled back with a steady motion to the first branch and then deflated. This procedure was repeated a total of six times for each experimental animal, after which the catheter was removed. […] Over 40 minutes, blood samples were taken for APTT and PT measurements, cuticle bleeding times were assessed and blood flow through the carotid monitored. Duration of patency was defined as the total amount of time (maximum=40 minutes) that any measurable blood flow is detected in the artery. Patency rate refers to the percentage of animals tested who had carotid artery blood flow≥5 minutes. At the end of the experiment the rabbit was euthanized and the carotid artery removed and opened. If any thrombus was present, it was removed, blotted and the weight recorded.
[Heparin was dosed as a 25 u/kg bolus followed by a continuous infusion of 1) 0.5 u/kg/min or 2) 1 u/kg/min. Other reagents were given as a 2 mg/kg IV bolus. With the exception of the patency data, values are expressed as means ±sem.]

normal human plasma = test: Activated partial thromboplastin time (APTT) assay, initiated by ellagic acid; type: biochemical
Description: For the activated partial thromboplastin time (APTT) assays, the activation time was set at 120 sec and acquisition time at 300 to 600 sec depending on the expected outcome of the assay. Citrated normal human plasma and inhibitor were incubated together. The sample (plasma and inhibitor) and activator (Instrumentation Laboratories Ellagic acid/Phospholipid mix Test Reagent) were automatically pipetted and incubated together for 2 min at 37° C., then CaCl2 was added and clotting time determined by means of optical assessment. The total incubation time of inhibitor with plasma was ca. 3 min before addition of activator, and 5 min before addition of CaCl2.

CC[C@H](C)[C@@H]1NC(=O)[C@H](CC(C)C)NC(=O)[C@H](C)NC(=O)[C@H](CCCNC(=N)N)NC(=O)[C@@H]2CSSC[C@@H]3NC(=O)CNC(=O)CNC(=O)[C@H](Cc4ccc(O)cc4)NC(=O)[C@H](Cc4ccccc4)NC(=O)[C@H](Cc4ccccc4)NC(=O)[C@@H]4CCCN4C(=O)[C@H](C)NC(=O)[C@H](CSSC[C@H](NC(=O)[C@H](Cc4ccc(O)cc4)NC(=O)[C@H](CCC(=O)O)NC(=O)[C@H](CCC(=O)O)NC(=O)[C@H]([C@@H](C)O)NC(=O)[C@H](CC(=O)O)NC(=O)[C@H](Cc4ccccc4)NC(=O)[C@H](CC(N)=O)NC(=O)[C@H](CC(N)=O)NC(=O)[C@H](CCCNC(=N)N)NC(=O)[C@H](CC(N)=O)NC(=O)CNC(=O)[C@H](Cc4ccc(O)cc4)NC3=O)C(=O)N[C@@H](C)C(=O)N[C@@H](C)C(=O)N[C@@H](C(C)C)C(=O)N[C@H](C(=O)NCC(=O)N[C@@H](CO)C(=O)N[C@@H](C)C(=O)O)CSSC[C@H](NC(=O)[C@@H](NC(=O)[C@H](CCC(=O)O)NC(=O)[C@H](CCCNC(=N)N)NC(=O)[C@@H](N)C(C)C)C(C)C)C(=O)N[C@@H](CO)C(=O)N[C@@H](CCC(=O)O)C(=O)N[C@@H](CCC(N)=O)C(=O)N[C@@H](C)C(=O)N[C@@H](CCC(=O)O)C(=O)N3CCC[C@H]3C(=O)NCC(=O)N3CCC[C@H]3C(=O)N2)NC(=O)[C@H](CCCCN)NC(=O)CNC(=O)[C@H](CCC(=O)O)NC(=O)[C@H]([C@@H](C)O)NC(=O)[C@H](C(C)C)NC(=O)[C@H](CC(=O)O)NC(=O)[C@H](Cc2ccccc2)NC(=O)[C@H](Cc2ccc(O)cc2)NC(=O)[C@H](Cc2c[nH]c3ccccc23)NC(=O)[C@H](CCCNC(=N)N)NC(=O)[C@H](CC(C)C)NC1=O [TF7I-C]
bleeding compared to the saline control (in words) [1]: did not induce prolonged bleeding

APPI: Alzheimer's amyloid β-protein precursor inhibitor, 58 residue Kunitz domain, wild type (SEQ ID NO: 34) (VREVCSEQAETGPCRAMISRWYFDVTEGKCAPFFYGGCGGNRNNFDTEEYCMAVCGSA)
Cuticle bleeding time, fold increase over pre dose ([1]; in vivo, iv, 2 mg/kg): 2.2 ± 0.6 fold | Patency (%) ([2]; rabbit, 2 mg/kg IV bolus, animals with carotid blood flow ≥5 minutes): 40% | Patency Duration ([2]; rabbit, 2 mg/kg IV bolus, maximum 40 minutes, mean ± sem): 13.4 ± 8.5 min | Clot (mgs) ([2]; rabbit, 2 mg/kg IV bolus, thrombus weight, mean ± sem): 49.5 ± 18.2 mgs | APTT clotting time, fold prolongation (normal human plasma; 40 μM inhibitor, uninhibited clotting time 31 s): 3.6 fold | APTT clotting time, fold prolongation (normal human plasma; ca. 7 μM inhibitor): ca. 3 fold

VREVCSEQAEPGPCRAMMKRWYFDVTEGKCAPFIYGGCYGNRNNFDTEEYCAAVCGSA (disulfide 5-55, 14-38, 30-51) [IV-49C]
bleeding compared to the saline control (in words) [1]: did not induce prolonged bleeding

Heparin
patency and clot size compared to the saline control (in words) ([2]; rabbit deep medial injury model): significantly prolonged patency and reduced clot size | Patency (%) ([2]; rabbit, Heparin 1: 25 u/kg bolus then 0.5 u/kg/min infusion): 67% | Patency Duration ([2]; rabbit, Heparin 1: 25 u/kg bolus then 0.5 u/kg/min infusion, mean ± sem): 23.3 ± 6.7 min | Patency (%) ([2]; rabbit, Heparin 2: 25 u/kg bolus then 1 u/kg/min infusion): 100% | Patency Duration ([2]; rabbit, Heparin 2: 25 u/kg bolus then 1 u/kg/min infusion, mean ± sem): 35.2 ± 2.2 min
